Test results: the kinase profiling compilation of Christmann-Franck et al. (2016)

How the values were obtained:
Test in all cases: radiometric filter-binding kinase assay, Kinase HotSpot
Details in all cases: compound 0.5 µM; ATP 10 µM
[1] = target: ACVR1B (human) (UniProt P36896)
[2] = target: AURKA (human) (UniProt O14965)
[3] = target: CAMK1 (human) (UniProt Q14012)
[4] = target: CDK4 CCND1 (human) (UniProt P24385+P11802)
[5] = target: CDK5 CDK5R1 p25 (human) (UniProt Q00535+Q15078)
[6] = target: CLK1 (human) (UniProt P49759)
[7] = target: CLK3 (human) (UniProt P49761)
[8] = target: CSNK1G1 (human) (UniProt Q9HCP0)
[9] = target: DYRK3 (human) (UniProt O43781)
[10] = target: EPHA3 (human) (UniProt P29320)
[11] = target: EPHA7 (human) (UniProt Q15375)
[12] = target: EPHB1 (human) (UniProt P54762)
[13] = target: GSK3A (human) (UniProt P49840)
[14] = target: HIPK3 (human) (UniProt Q9H422)
[15] = target: IRAK4 (human) (UniProt Q9NWZ3)
[16] = target: LRRK2 (human) (UniProt Q5S007)
[17] = target: MAP2K1 (human) (UniProt Q02750)
[18] = target: MAP2K2 (human) (UniProt P36507)
[19] = target: MAP3K10 (human) (UniProt Q02779)
[20] = target: MAP3K14 (human) (UniProt Q99558)
[21] = target: MAP3K2 (human) (UniProt Q9Y2U5)
[22] = target: MAP3K7 TAB1 (human) (UniProt O43318+Q15750)
[23] = target: MAP3K8 (human) (UniProt P41279)
[24] = target: MARK3 (human) (UniProt P27448)
[25] = target: PBK (human) (UniProt Q96KB5)
[26] = target: PIM1 (human) (UniProt P11309)
[27] = target: PKN1 (human) (UniProt Q16512)
[28] = target: PLK1 (human) (UniProt P53350)
[29] = target: PRKACA (human) (UniProt P17612)
[30] = target: PRKCI (human) (UniProt P41743)
[31] = target: PRKD2 (human) (UniProt Q9BZL6)
[32] = target: RPS6KA2 KD1 KD2 (human) (UniProt Q15349)
[33] = target: RPS6KA6 KD1 KD2 (human) (UniProt Q9UK32)
[34] = target: SGK3 (human) (UniProt Q96BR1)
[35] = target: SRC (human) (UniProt P12931)
[36] = target: STK33 (human) (UniProt Q9BYT3)
[37] = target: STK39 (human) (UniProt Q9UEW8)
[38] = target: TEC (human) (UniProt P42680)
[39] = target: TGFBR2 (human) (UniProt P37173)
[40] = target: TYK2 JH1 catalytic (human) (UniProt P29597)
[41] = target: YES1 (human) (UniProt P07947)

Chain of DYRK3 (human) (O43781 whole entry, looked up): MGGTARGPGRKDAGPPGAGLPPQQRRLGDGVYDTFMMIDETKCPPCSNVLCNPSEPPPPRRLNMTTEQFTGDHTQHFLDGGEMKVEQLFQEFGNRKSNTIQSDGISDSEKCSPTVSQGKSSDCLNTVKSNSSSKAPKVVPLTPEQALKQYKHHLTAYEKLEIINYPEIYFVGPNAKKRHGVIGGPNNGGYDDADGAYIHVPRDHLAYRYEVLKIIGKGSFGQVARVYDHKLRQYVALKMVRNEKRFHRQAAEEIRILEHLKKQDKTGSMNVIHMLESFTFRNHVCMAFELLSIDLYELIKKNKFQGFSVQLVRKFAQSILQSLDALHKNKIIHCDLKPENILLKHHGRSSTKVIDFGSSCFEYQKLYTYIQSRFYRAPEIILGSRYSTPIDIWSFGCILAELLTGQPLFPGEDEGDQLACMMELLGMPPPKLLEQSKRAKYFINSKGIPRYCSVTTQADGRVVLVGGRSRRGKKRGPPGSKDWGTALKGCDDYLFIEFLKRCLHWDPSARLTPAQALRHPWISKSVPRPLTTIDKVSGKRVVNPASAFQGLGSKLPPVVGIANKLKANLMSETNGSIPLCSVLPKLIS
Chain of CLK3 (human) (P49761 whole entry, looked up): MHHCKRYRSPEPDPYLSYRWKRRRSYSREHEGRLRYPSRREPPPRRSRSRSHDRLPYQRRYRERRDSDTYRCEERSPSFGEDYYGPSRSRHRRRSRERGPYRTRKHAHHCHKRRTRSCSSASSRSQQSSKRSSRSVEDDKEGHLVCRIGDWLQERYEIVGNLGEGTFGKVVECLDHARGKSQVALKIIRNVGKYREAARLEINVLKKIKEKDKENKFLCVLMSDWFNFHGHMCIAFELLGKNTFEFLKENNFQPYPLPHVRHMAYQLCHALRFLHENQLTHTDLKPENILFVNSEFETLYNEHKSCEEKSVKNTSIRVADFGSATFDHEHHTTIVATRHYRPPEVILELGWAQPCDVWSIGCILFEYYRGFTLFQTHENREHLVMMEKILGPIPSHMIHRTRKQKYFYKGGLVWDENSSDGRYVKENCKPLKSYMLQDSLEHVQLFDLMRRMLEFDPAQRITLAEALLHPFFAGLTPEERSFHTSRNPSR
Chain of EPHA7 (human) (Q15375 whole entry, looked up): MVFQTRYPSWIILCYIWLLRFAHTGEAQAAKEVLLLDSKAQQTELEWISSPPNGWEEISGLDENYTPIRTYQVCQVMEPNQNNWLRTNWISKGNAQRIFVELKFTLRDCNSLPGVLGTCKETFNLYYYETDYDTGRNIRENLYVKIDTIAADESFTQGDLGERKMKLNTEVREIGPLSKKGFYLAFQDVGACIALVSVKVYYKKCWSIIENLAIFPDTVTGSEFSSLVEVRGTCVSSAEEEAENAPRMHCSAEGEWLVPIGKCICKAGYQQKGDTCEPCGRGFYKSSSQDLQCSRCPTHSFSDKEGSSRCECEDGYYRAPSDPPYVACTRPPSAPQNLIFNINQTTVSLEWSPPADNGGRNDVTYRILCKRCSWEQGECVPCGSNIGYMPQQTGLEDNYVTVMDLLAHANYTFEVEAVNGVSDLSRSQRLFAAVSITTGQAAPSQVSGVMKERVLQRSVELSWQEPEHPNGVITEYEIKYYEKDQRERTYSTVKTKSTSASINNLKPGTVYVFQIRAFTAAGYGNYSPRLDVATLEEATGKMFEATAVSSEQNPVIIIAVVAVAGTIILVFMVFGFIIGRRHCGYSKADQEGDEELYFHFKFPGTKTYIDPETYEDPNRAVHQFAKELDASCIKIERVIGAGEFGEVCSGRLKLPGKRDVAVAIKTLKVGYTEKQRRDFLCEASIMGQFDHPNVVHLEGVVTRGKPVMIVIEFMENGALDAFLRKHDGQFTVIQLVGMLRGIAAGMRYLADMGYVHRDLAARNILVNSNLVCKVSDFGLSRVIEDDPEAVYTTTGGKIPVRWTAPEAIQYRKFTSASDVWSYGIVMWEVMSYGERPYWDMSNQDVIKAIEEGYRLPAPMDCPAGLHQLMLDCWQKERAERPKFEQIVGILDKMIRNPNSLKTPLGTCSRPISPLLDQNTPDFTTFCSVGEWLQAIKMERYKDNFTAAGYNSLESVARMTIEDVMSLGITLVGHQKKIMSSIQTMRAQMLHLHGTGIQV
Chain of CSNK1G1 (human) (Q9HCP0 whole entry, looked up): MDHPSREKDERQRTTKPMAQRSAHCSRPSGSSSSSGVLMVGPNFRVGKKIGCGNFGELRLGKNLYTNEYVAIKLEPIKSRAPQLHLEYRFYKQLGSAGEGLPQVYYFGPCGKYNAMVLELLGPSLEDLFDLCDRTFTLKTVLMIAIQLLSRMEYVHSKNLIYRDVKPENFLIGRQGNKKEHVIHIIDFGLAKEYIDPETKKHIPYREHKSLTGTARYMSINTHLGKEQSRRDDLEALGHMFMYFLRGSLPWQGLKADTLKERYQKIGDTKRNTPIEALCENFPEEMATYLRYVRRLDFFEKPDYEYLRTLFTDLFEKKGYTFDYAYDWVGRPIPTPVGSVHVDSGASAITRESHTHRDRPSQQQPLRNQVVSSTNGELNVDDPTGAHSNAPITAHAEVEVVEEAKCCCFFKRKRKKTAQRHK
Chain of CAMK1 (human) (Q14012 whole entry, looked up): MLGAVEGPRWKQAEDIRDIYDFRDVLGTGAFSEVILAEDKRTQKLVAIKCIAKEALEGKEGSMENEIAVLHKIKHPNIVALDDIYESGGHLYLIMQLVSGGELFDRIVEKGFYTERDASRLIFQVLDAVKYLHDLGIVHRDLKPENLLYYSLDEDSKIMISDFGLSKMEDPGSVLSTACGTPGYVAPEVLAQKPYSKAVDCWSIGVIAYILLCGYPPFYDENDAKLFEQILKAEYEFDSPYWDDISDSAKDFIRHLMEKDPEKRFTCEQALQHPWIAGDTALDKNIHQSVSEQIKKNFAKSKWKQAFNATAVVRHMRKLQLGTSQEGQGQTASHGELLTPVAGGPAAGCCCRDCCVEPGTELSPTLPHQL
Chain of CDK5 CDK5R1 p25 (human) (Q00535 whole entry, looked up): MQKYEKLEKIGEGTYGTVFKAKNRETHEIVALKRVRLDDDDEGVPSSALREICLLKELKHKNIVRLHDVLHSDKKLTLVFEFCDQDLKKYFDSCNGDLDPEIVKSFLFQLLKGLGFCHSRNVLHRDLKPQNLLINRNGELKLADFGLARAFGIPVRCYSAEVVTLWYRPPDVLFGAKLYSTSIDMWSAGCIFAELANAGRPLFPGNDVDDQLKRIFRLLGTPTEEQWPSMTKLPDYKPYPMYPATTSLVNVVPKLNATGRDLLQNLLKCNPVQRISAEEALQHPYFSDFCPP
Chain of CDK5 CDK5R1 p25 (human) (Q15078 whole entry, looked up): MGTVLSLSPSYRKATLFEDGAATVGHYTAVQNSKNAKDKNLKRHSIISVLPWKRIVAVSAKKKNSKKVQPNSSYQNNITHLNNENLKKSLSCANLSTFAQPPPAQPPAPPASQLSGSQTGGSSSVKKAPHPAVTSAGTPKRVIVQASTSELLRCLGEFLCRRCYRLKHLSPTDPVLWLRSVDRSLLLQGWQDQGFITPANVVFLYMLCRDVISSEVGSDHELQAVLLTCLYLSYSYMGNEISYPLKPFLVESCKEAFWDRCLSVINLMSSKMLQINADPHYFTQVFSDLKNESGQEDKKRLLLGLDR
Chain of MAP3K14 (human) (Q99558 whole entry, looked up): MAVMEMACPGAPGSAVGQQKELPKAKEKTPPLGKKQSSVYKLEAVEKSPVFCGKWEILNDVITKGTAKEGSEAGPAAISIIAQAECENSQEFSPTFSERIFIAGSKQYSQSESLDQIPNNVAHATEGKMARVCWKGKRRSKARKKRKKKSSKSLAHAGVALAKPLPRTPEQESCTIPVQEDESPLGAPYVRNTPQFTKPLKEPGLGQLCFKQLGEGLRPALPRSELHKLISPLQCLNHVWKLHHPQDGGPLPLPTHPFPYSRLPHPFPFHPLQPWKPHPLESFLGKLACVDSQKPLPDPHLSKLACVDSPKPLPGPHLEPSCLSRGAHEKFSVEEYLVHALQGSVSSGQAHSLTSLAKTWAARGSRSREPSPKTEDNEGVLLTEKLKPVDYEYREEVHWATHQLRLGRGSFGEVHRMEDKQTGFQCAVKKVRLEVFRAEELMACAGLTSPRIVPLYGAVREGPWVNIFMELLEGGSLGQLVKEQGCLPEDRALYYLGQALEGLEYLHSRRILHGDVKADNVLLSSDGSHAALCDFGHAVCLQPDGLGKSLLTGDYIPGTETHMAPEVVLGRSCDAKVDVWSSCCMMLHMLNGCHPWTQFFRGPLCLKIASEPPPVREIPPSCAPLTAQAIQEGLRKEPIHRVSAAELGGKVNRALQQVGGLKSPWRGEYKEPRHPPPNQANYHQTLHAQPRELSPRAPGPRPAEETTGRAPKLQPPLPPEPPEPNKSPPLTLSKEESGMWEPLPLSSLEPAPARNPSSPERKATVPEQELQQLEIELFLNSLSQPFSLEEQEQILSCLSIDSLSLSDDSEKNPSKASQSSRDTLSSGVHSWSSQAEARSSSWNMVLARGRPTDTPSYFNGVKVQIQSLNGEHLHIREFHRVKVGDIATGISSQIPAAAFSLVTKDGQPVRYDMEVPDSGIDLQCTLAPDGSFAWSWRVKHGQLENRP
Chain of TGFBR2 (human) (P37173 whole entry, looked up): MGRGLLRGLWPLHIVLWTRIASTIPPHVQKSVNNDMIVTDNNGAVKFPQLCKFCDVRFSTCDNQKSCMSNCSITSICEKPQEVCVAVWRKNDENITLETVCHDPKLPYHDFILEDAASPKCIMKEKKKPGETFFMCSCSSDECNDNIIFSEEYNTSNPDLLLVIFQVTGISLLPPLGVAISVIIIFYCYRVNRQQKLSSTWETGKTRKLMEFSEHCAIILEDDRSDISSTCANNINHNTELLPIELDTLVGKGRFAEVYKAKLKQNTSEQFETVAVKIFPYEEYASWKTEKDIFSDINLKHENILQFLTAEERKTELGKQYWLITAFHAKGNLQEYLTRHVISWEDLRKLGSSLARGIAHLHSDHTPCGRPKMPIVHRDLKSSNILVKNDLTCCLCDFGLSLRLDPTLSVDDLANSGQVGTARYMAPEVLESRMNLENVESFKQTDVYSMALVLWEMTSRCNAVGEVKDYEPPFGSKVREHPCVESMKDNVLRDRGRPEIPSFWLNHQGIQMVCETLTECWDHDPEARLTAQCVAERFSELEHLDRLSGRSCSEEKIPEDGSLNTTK

Nc1n[nH]c2nnc(-c3c(-c4ccccc4)nn4ccccc34)cc12
residual activity [1]: 107%
residual activity [2]: 101%
residual activity [3]: 102%
residual activity [4]: 89.2%
residual activity [5]: 101%
residual activity [6]: 108%
residual activity [7]: 94.9%
residual activity [8]: 109%
residual activity [9]: 99.8%
residual activity [10]: 97.8%
residual activity [11]: 99.5%
residual activity [12]: 98.6%
residual activity [13]: 81.2%
residual activity [14]: 95.3%
residual activity [15]: 99.7%
residual activity [16]: 91.8%
residual activity [17]: 94.3%
residual activity [18]: 99.4%
residual activity [19]: 90.7%
residual activity [20]: 102%
residual activity [21]: 97.8%
residual activity [22]: 101%
residual activity [23]: 95%
residual activity [24]: 99.3%
residual activity [25]: 95%
residual activity [26]: 100%
residual activity [27]: 98.2%
residual activity [28]: 98.1%
residual activity [29]: 97.7%
residual activity [30]: 98.3%
residual activity [31]: 54.1%
residual activity [32]: 96.5%
residual activity [33]: 95.5%
residual activity [34]: 90.2%
residual activity [35]: 100%
residual activity [36]: 100%
residual activity [37]: 89.1%
residual activity [38]: 96.1%
residual activity [39]: 112%
residual activity [40]: 104%
residual activity [41]: 91.1%

Cc1cc2ncc(-c3ccccc3)nc2cc1C
residual activity [1]: 97.7%
residual activity [2]: 92.1%
residual activity [3]: 96.2%
residual activity [4]: 101%
residual activity [5]: 96.6%
residual activity [6]: 95.4%
residual activity [7]: 92.8%
residual activity [8]: 85.7%
residual activity [9]: 89.2%
residual activity [10]: 109%
residual activity [11]: 96.6%
residual activity [12]: 91.1%
residual activity [13]: 104%
residual activity [14]: 94.4%
residual activity [15]: 93.1%
residual activity [16]: 94.4%
residual activity [17]: 98%
residual activity [18]: 97.6%
residual activity [19]: 97.8%
residual activity [20]: 112%
residual activity [21]: 105%
residual activity [22]: 89.9%
residual activity [23]: 106%
residual activity [24]: 101%
residual activity [25]: 94.5%
residual activity [26]: 101%
residual activity [27]: 92.5%
residual activity [28]: 101%
residual activity [29]: 108%
residual activity [30]: 98%
residual activity [31]: 96.5%
residual activity [32]: 92.5%
residual activity [33]: 98.2%
residual activity [34]: 101%
residual activity [35]: 104%
residual activity [36]: 94.1%
residual activity [37]: 103%
residual activity [38]: 98.1%
residual activity [39]: 130%
residual activity [40]: 97.6%
residual activity [41]: 102%

COc1cc2nccc(Oc3ccc(NC(=S)NC(=O)c4ccccc4C)cc3)c2cc1OC
residual activity [1]: 92.1%
residual activity [2]: 18.9%
residual activity [3]: 101%
residual activity [4]: 95.1%
residual activity [5]: 93.2%
residual activity [6]: 89.9%
residual activity [7]: 93.2%
residual activity [8]: 80.1%
residual activity [9]: 90.8%
residual activity [10]: 105%
residual activity [11]: 90.4%
residual activity [12]: 98.5%
residual activity [13]: 91.4%
residual activity [14]: 95.2%
residual activity [15]: 82.4%
residual activity [16]: 94.4%
residual activity [17]: 88.3%
residual activity [18]: 79.4%
residual activity [19]: 91%
residual activity [20]: 106%
residual activity [21]: 83.1%
residual activity [22]: 95.6%
residual activity [23]: 94.1%
residual activity [24]: 79.2%
residual activity [25]: 81.3%
residual activity [26]: 97.6%
residual activity [27]: 99.2%
residual activity [28]: 97.9%
residual activity [29]: 91.8%
residual activity [30]: 99.9%
residual activity [31]: 86.8%
residual activity [32]: 91.1%
residual activity [33]: 93%
residual activity [34]: 98.3%
residual activity [35]: 71.7%
residual activity [36]: 94.6%
residual activity [37]: 91.5%
residual activity [38]: 90.8%
residual activity [39]: 96.7%
residual activity [40]: 88.5%
residual activity [41]: 23.8%

Oc1ccc(-c2nc(-c3ccc(F)cc3)c(-c3ccncc3)[nH]2)cc1
residual activity [1]: 136%
residual activity [2]: 96.1%
residual activity [3]: 108%
residual activity [4]: 105%
residual activity [5]: 96%
residual activity [6]: 107%
residual activity [7]: 101%
residual activity [8]: 97.3%
residual activity [9]: 101%
residual activity [10]: 99%
residual activity [11]: 86.1%
residual activity [12]: 96.8%
residual activity [13]: 91.1%
residual activity [14]: 98.3%
residual activity [15]: 124%
residual activity [16]: 95.8%
residual activity [17]: 93%
residual activity [18]: 101%
residual activity [19]: 32.8%
residual activity [20]: 115%
residual activity [21]: 95%
residual activity [22]: 97.7%
residual activity [23]: 96.6%
residual activity [24]: 105%
residual activity [25]: 100%
residual activity [26]: 106%
residual activity [27]: 78.9%
residual activity [28]: 100%
residual activity [29]: 84.3%
residual activity [30]: 93.4%
residual activity [31]: 79.9%
residual activity [32]: 101%
residual activity [33]: 110%
residual activity [34]: 98.4%
residual activity [35]: 85.9%
residual activity [36]: 103%
residual activity [37]: 94.8%
residual activity [38]: 106%
residual activity [39]: 127%
residual activity [40]: 106%
residual activity [41]: 84.7%

NC(=O)c1ccc(N(C(N)=O)c2c(F)cccc2F)nc1-c1ccc(F)cc1F
residual activity [1]: 113%
residual activity [2]: 86.4%
residual activity [3]: 98.1%
residual activity [4]: 96.8%
residual activity [5]: 95.9%
residual activity [6]: 108%
residual activity [7]: 112%
residual activity [8]: 102%
residual activity [9]: 105%
residual activity [10]: 97%
residual activity [11]: 79.9%
residual activity [12]: 100%
residual activity [13]: 98.6%
residual activity [14]: 98.4%
residual activity [15]: 87.5%
residual activity [16]: 82%
residual activity [17]: 89%
residual activity [18]: 92.3%
residual activity [19]: 104%
residual activity [20]: 114%
residual activity [21]: 122%
residual activity [22]: 105%
residual activity [23]: 94.3%
residual activity [24]: 98.1%
residual activity [25]: 110%
residual activity [26]: 98.8%
residual activity [27]: 101%
residual activity [28]: 95.1%
residual activity [29]: 101%
residual activity [30]: 99.1%
residual activity [31]: 81.8%
residual activity [32]: 97.5%
residual activity [33]: 101%
residual activity [34]: 99.9%
residual activity [35]: 109%
residual activity [36]: 94%
residual activity [37]: 93.7%
residual activity [38]: 114%
residual activity [39]: 102%
residual activity [40]: 93.5%
residual activity [41]: 97.8%
